Patent US10472320B2, “Process to prepare phenolic ethylenediamine diacetic acid compounds” (Akzo Nobel Chemicals International B.V., priority 2015, dated 2019)

Settings: for appearance of extracted aqueous ligand solution (precipitate formation): after last methyl isobutyl ketone extraction; for concentration of o,o-HBED at which a clear solution was obtained after addition of water: dilution with water after precipitation; for concentration of o,o-HBED at which a clear solution was obtained after addition of water / concentration of o,o-HBED in the extracted aqueous ligand solution: expressed as H4-o,o-HBED; for concentration of o,o-HBED in the extracted aqueous ligand solution: after phenol extraction with methyl isobutyl ketone
Experimental: (§1) Phenol was extracted from the reaction mixture with methyl isobutyl ketone (250 ml and 3 times 125 ml).
as §1
(§2) Phenol was extracted from the reaction mixture with methyl isobutyl ketone (75 ml and 3 times 50 ml).
(§3) Phenol was extracted from the reaction mixture with methyl isobutyl ketone (100 ml and 3 times 50 ml).
as §3, §2
Phenol was extracted from the reaction mixture with methyl isobutyl ketone (85 ml and 3 times 50 ml).
as §2

O=C(O)CN(CCN(CC(=O)O)Cc1ccccc1O)Cc1ccccc1O [Comparative Example 1, N,N′-di(2-hydroxybenzyl)ethylenediamine-N,N′-diacetic acid, reference compound]
appearance of extracted aqueous ligand solution (precipitate formation): soon a large amount of precipitate was formed | concentration of o,o-HBED at which a clear solution was obtained after addition of water: approximately 6.2%

O=C(O)CN(CCN(CC(=O)O)Cc1ccccc1O)Cc1ccccc1O [Comparative Example 2, N,N′-di(2-hydroxybenzyl)ethylenediamine-N,N′-diacetic acid, reference compound]
appearance of extracted aqueous ligand solution (precipitate formation): turned turbid and a lot of product precipitated | concentration of o,o-HBED at which a clear solution was obtained after addition of water: 9.6%

O=C(O)CN(CCN(CC(=O)O)Cc1ccccc1O)Cc1ccccc1O [Comparative Example 3, N,N′-di(2-hydroxybenzyl)ethylenediamine-N,N′-diacetic acid, reference compound]
appearance of extracted aqueous ligand solution (precipitate formation): turned turbid and a lot of product precipitated

O=C(O)CN(CCN(CC(=O)O)Cc1ccccc1O)Cc1ccccc1O [Example 1, N,N′-di(2-hydroxybenzyl)ethylenediamine-N,N′-diacetic acid]
concentration of o,o-HBED in the extracted aqueous ligand solution: approximately 26%

O=C(O)CN(CCN(CC(=O)O)Cc1ccccc1O)Cc1ccccc1O [Example 2, N,N′-di(2-hydroxybenzyl)ethylenediamine-N,N′-diacetic acid]
appearance of extracted aqueous ligand solution (precipitate formation): became slightly turbid, but the solution could still be handled easily | concentration of o,o-HBED in the extracted aqueous ligand solution: approximately 23%

O=C(O)CN(CCN(CC(=O)O)Cc1ccccc1O)Cc1ccccc1O [Example 3, N,N′-di(2-hydroxybenzyl)ethylenediamine-N,N′-diacetic acid]
appearance of extracted aqueous ligand solution (precipitate formation): became slightly turbid, but the solution could still be handled easily | concentration of o,o-HBED in the extracted aqueous ligand solution: approximately 22%

O=C(O)CN(CCN(CC(=O)O)Cc1ccccc1O)Cc1ccccc1O [Example 4, N,N′-di(2-hydroxybenzyl)ethylenediamine-N,N′-diacetic acid]
appearance of extracted aqueous ligand solution (precipitate formation): remained clear without the formation of any precipitates | concentration of o,o-HBED in the extracted aqueous ligand solution: approximately 22%

O=C(O)CN(CCN(CC(=O)O)Cc1ccccc1O)Cc1ccccc1O [Example 5, N,N′-di(2-hydroxybenzyl)ethylenediamine-N,N′-diacetic acid]
appearance of extracted aqueous ligand solution (precipitate formation): remained clear without the formation of any precipitates | concentration of o,o-HBED in the extracted aqueous ligand solution: approximately 22%

O=C(O)CN(CCN(CC(=O)O)Cc1ccccc1O)Cc1ccccc1O [Example 6, N,N′-di(2-hydroxybenzyl)ethylenediamine-N,N′-diacetic acid]
concentration of o,o-HBED in the extracted aqueous ligand solution: approximately 22%

O=C(O)CN(CCN(CC(=O)O)Cc1ccccc1O)Cc1ccccc1O [Example 7, N,N′-di(2-hydroxybenzyl)ethylenediamine-N,N′-diacetic acid]
appearance of extracted aqueous ligand solution (precipitate formation): remained clear without the formation of any precipitates | concentration of o,o-HBED in the extracted aqueous ligand solution: approximately 25%
